Results published in patent publication US20250289787A1, “HERBICIDAL 2-OXO-NICOTINIC ACID DERIVATIVES” (SYNGENTA CROP PROTECTION AG, priority 2022, published 2025).

Assays:
Type in all cases: in vivo
Set-up in all cases: key: 5=81-100%; 4=61-80%; 3=41-60%; 2=21-40%; 1=1-20%; 0=no damage to the plant; -=not tested
[1] = system: Amaranthus palmeri (AMAPA); assay: Pre-emergence test, herbicidal damage; conditions: 1000 g/ha unless otherwise stated, evaluated after 13 days, five-point scale
Setaria faberi (SETFA) [2] = assay: Pre-emergence test, herbicidal damage; conditions: 1000 g/ha unless otherwise stated, evaluated after 13 days, five-point scale
[3] = system: Amaranthus palmeri (AMAPA); assay: Post-emergence test, herbicidal damage; conditions: sprayed after 8 days cultivation, 1000 g/ha unless otherwise stated, evaluated after 13 days, five-point scale
Method: (§1) Seeds of a variety of test species are sown in standard soil in pots Amaranthus palmeri (AMAPA), (Amaranthus retoflexus (AMARE), Echinochloa crus-galli (ECHCG), Zea mays (ZEAMX), Ipomoea 5 hederacea (IPOHE), and Setaria faberi (SETFA). After 8 days cultivation under controlled conditions in a glasshouse (at 24° C./16° C., day/night; 14 hours light; 65% humidity), the plants are sprayed with an aqueous spray solution derived from the formulation of the technical active ingredient in acetone/water (50:50) solution containing 0.5% Tween 20 (polyoxyethelyene sorbitan monolaurate, CAS RN 9005-64-5). Compounds are applied at 1000 g/ha unless otherwise stated. The test plants are then grown in a glasshouse under controlled conditions in a glasshouse (at 24° C./16° C., day/night; 14 hours light; 65% humidity) and watered twice daily. After 13 days the test is evaluated for the percentage damage caused to the plant. The biological activities are shown in the following table on a five-point scale (5=81-100%; 4=61-80%; 3=41-60%; 2=21-40%; 1=1-20%; 0=no damage to the plant; -=not tested).

Zea mays (ZEAMX) [4] = assay: Post-emergence test, herbicidal damage; conditions: sprayed after 8 days cultivation, 1000 g/ha unless otherwise stated, evaluated after 13 days, five-point scale
Method: as §1

[5] = system: Ipomoea hederacea (IPOHE); assay: Post-emergence test, herbicidal damage; conditions: sprayed after 8 days cultivation, 1000 g/ha unless otherwise stated, evaluated after 13 days, five-point scale
Method: as §1

[6] = system: Amaranthus retoflexus (AMARE); assay: Post-emergence test, herbicidal damage; conditions: sprayed after 8 days cultivation, 1000 g/ha unless otherwise stated, evaluated after 13 days, five-point scale
Method: as §1

[7] = system: Echinochloa crus-galli (ECHCG); assay: Post-emergence test, herbicidal damage; conditions: sprayed after 8 days cultivation, 1000 g/ha unless otherwise stated, evaluated after 13 days, five-point scale
Method: as §1

Setaria faberi (SETFA) [8] = assay: Post-emergence test, herbicidal damage; conditions: sprayed after 8 days cultivation, 1000 g/ha unless otherwise stated, evaluated after 13 days, five-point scale
Method: as §1

Zea mays (ZEAMX) [9] = assay: Pre-emergence test, herbicidal damage; conditions: 1000 g/ha unless otherwise stated, evaluated after 13 days, five-point scale
[10] = system: Ipomoea hederacea (IPOHE); assay: Pre-emergence test, herbicidal damage; conditions: 1000 g/ha unless otherwise stated, evaluated after 13 days, five-point scale
[11] = system: Amaranthus retoflexus (AMARE); assay: Pre-emergence test, herbicidal damage; conditions: 1000 g/ha unless otherwise stated, evaluated after 13 days, five-point scale
[12] = system: Echinochloa crus-galli (ECHCG); assay: Pre-emergence test, herbicidal damage; conditions: 1000 g/ha unless otherwise stated, evaluated after 13 days, five-point scale

Cc1c(Cl)c(-c2ccc(Cl)c(Cl)c2)c(C(=O)O)c(=O)n1-c1ccc(F)cc1 [Compound 20, 5-chloro-4-(3,4-dichlorophenyl)-1-(4-fluorophenyl)-6-methyl-2-oxo-pyridine-3-carboxylic acid]
percentage damage caused to the plant, AMAPA [1]: 5 (5=81-100%)
percentage damage caused to the plant, SEFTA (Setaria faberi (SETFA) [2]): 2 (2=21-40%)
percentage damage caused to the plant, AMAPA [3]: 5 (5=81-100%)
percentage damage caused to the plant, ZEAMX (Zea mays (ZEAMX) [4]): 4 (4=61-80%)
percentage damage caused to the plant, IPOHE [5]: 2 (2=21-40%)
percentage damage caused to the plant, AMARE [6]: 4 (4=61-80%)
percentage damage caused to the plant, ECHCG [7]: 2 (2=21-40%)
percentage damage caused to the plant, SEFTA (Setaria faberi (SETFA) [8]): 4 (4=61-80%)
percentage damage caused to the plant, ZEAMX (Zea mays (ZEAMX) [9]): 0
percentage damage caused to the plant, IPOHE [10]: 1 (1=1-20%)
percentage damage caused to the plant, AMARE [11]: 4 (4=61-80%)
percentage damage caused to the plant, ECHCG [12]: 1 (1=1-20%)

Cc1cc(-c2ccc(Cl)c(Cl)c2)c(C(=O)O)c(=O)n1-c1cccc(C(F)(F)F)c1F [Compound 17, 4-(3,4-dichlorophenyl)-1-[2-fluoro-3-(trifluoromethyl)phenyl]-6-methyl-2-oxo-pyridine-3-carboxylic acid]
percentage damage caused to the plant, AMAPA [1]: 0
percentage damage caused to the plant, SEFTA (Setaria faberi (SETFA) [2]): 0
percentage damage caused to the plant, AMAPA [3]: 2 (2=21-40%)
percentage damage caused to the plant, ZEAMX (Zea mays (ZEAMX) [4]): 0
percentage damage caused to the plant, IPOHE [5]: 0
percentage damage caused to the plant, AMARE [6]: 1 (1=1-20%)
percentage damage caused to the plant, ECHCG [7]: 0
percentage damage caused to the plant, SEFTA (Setaria faberi (SETFA) [8]): 1 (1=1-20%)
percentage damage caused to the plant, ZEAMX (Zea mays (ZEAMX) [9]): 0
percentage damage caused to the plant, IPOHE [10]: 0
percentage damage caused to the plant, AMARE [11]: 0
percentage damage caused to the plant, ECHCG [12]: 0

C=Cc1c(-c2ccc(Cl)c(Cl)c2)c(C(=O)O)c(=O)n(-c2ccc(Cl)cc2F)c1C [Compound 32, 1-(4-chloro-2-fluoro-phenyl)-4-(3,4-dichlorophenyl)-6-methyl-2-oxo-5-vinyl-pyridine-3-carboxylic acid]
percentage damage caused to the plant, AMAPA [1]: 4 (4=61-80%)
percentage damage caused to the plant, SEFTA (Setaria faberi (SETFA) [2]): 1 (1=1-20%)
percentage damage caused to the plant, AMAPA [3]: 4 (4=61-80%)
percentage damage caused to the plant, ZEAMX (Zea mays (ZEAMX) [4]): 1 (1=1-20%)
percentage damage caused to the plant, IPOHE [5]: 2 (2=21-40%)
percentage damage caused to the plant, AMARE [6]: 3 (3=41-60%)
percentage damage caused to the plant, ECHCG [7]: 1 (1=1-20%)
percentage damage caused to the plant, SEFTA (Setaria faberi (SETFA) [8]): 1 (1=1-20%)
percentage damage caused to the plant, ZEAMX (Zea mays (ZEAMX) [9]): 1 (1=1-20%)
percentage damage caused to the plant, IPOHE [10]: 1 (1=1-20%)
percentage damage caused to the plant, AMARE [11]: 3 (3=41-60%)
percentage damage caused to the plant, ECHCG [12]: 2 (2=21-40%)

Cc1cc(-c2ccc(Cl)c(Cl)c2)c(C(=O)O)c(=O)n1-c1ccc(Cl)cc1F [Compound 13, 1-(4-chloro-2-fluoro-phenyl)-4-(3,4-dichlorophenyl)-6-methyl-2-oxo-pyridine-3-carboxylic acid]
percentage damage caused to the plant, AMAPA [1]: 2 (2=21-40%)
percentage damage caused to the plant, SEFTA (Setaria faberi (SETFA) [2]): 0
percentage damage caused to the plant, AMAPA [3]: 3 (3=41-60%)
percentage damage caused to the plant, ZEAMX (Zea mays (ZEAMX) [4]): 1 (1=1-20%)
percentage damage caused to the plant, IPOHE [5]: 0
percentage damage caused to the plant, AMARE [6]: 2 (2=21-40%)
percentage damage caused to the plant, ECHCG [7]: 0
percentage damage caused to the plant, SEFTA (Setaria faberi (SETFA) [8]): 0
percentage damage caused to the plant, ZEAMX (Zea mays (ZEAMX) [9]): 0
percentage damage caused to the plant, IPOHE [10]: 0
percentage damage caused to the plant, AMARE [11]: 2 (2=21-40%)
percentage damage caused to the plant, ECHCG [12]: 2 (2=21-40%)

Cc1c(Br)c(-c2ccc(Cl)c(Cl)c2)c(C(=O)O)c(=O)n1Cc1ccc(C#N)cc1F [Compound 33, 5-bromo-1-[(4-cyano-2-fluoro-phenyl)methyl]-4-(3,4-dichlorophenyl)-6-methyl-2-oxo-pyridine-3-carboxylic acid]
percentage damage caused to the plant, AMAPA [1]: 3 (3=41-60%)
percentage damage caused to the plant, SEFTA (Setaria faberi (SETFA) [2]): 1 (1=1-20%)
percentage damage caused to the plant, AMAPA [3]: 3 (3=41-60%)
percentage damage caused to the plant, ZEAMX (Zea mays (ZEAMX) [4]): 1 (1=1-20%)
percentage damage caused to the plant, IPOHE [5]: 1 (1=1-20%)
percentage damage caused to the plant, AMARE [6]: 3 (3=41-60%)
percentage damage caused to the plant, ECHCG [7]: 1 (1=1-20%)
percentage damage caused to the plant, SEFTA (Setaria faberi (SETFA) [8]): 1 (1=1-20%)
percentage damage caused to the plant, ZEAMX (Zea mays (ZEAMX) [9]): 1 (1=1-20%)
percentage damage caused to the plant, IPOHE [10]: 1 (1=1-20%)
percentage damage caused to the plant, AMARE [11]: 3 (3=41-60%)
percentage damage caused to the plant, ECHCG [12]: 1 (1=1-20%)

CC#Cc1c(-c2ccc(Cl)c(Cl)c2)c(C(=O)O)c(=O)n(-c2cc(F)cc(Cl)c2)c1C [Compound 40, 1-(3-chloro-5-fluoro-phenyl)-4-(3,4-dichlorophenyl)-6-methyl-2-oxo-5-prop-1-ynyl-pyridine-3-carboxylic acid]
percentage damage caused to the plant, AMAPA [1]: 0
percentage damage caused to the plant, SEFTA (Setaria faberi (SETFA) [2]): 0
percentage damage caused to the plant, AMAPA [3]: 0
percentage damage caused to the plant, ZEAMX (Zea mays (ZEAMX) [4]): 0
percentage damage caused to the plant, IPOHE [5]: 0
percentage damage caused to the plant, AMARE [6]: 0
percentage damage caused to the plant, ECHCG [7]: 0
percentage damage caused to the plant, SEFTA (Setaria faberi (SETFA) [8]): 0
percentage damage caused to the plant, ZEAMX (Zea mays (ZEAMX) [9]): 0
percentage damage caused to the plant, IPOHE [10]: 0
percentage damage caused to the plant, AMARE [11]: 0
percentage damage caused to the plant, ECHCG [12]: 0

Cc1cc(-c2ccc(Cl)c(Cl)c2)c(C(=O)O)c(=O)n1Cc1ccc(Cl)cc1F [Compound 22, 1-[(4-chloro-2-fluoro-phenyl)methyl]-4-(3,4-dichlorophenyl)-6-methyl-2-oxo-pyridine-3-carboxylic acid]
percentage damage caused to the plant, AMAPA [1]: 1 (1=1-20%)
percentage damage caused to the plant, SEFTA (Setaria faberi (SETFA) [2]): 1 (1=1-20%)
percentage damage caused to the plant, AMAPA [3]: 3 (3=41-60%)
percentage damage caused to the plant, ZEAMX (Zea mays (ZEAMX) [4]): 1 (1=1-20%)
percentage damage caused to the plant, IPOHE [5]: 1 (1=1-20%)
percentage damage caused to the plant, AMARE [6]: 3 (3=41-60%)
percentage damage caused to the plant, ECHCG [7]: 0
percentage damage caused to the plant, SEFTA (Setaria faberi (SETFA) [8]): 1 (1=1-20%)
percentage damage caused to the plant, ZEAMX (Zea mays (ZEAMX) [9]): 1 (1=1-20%)
percentage damage caused to the plant, IPOHE [10]: 0
percentage damage caused to the plant, AMARE [11]: 1 (1=1-20%)
percentage damage caused to the plant, ECHCG [12]: 1 (1=1-20%)
